Values of other authors in patent US20100063004A1, “TOPICAL PHARMACEUTICAL COMPOSITION” (priority 2006, published 2010).

Legend:
herpes labialis (HSV-1) = conditions: 10% n-docosanol suspended in an aqueous system containing a non-ionic surfactant and a carrier; humans with herpes labialis (HSV-1)
[1] = test system: lipid enveloped viruses such as herpes
[2] = test system: enlargement of the prostate gland; conditions: taken orally

Compound: CCCCCCCCCCCCCCCCCCCCCCO [n-docosanol]
- mean healing time of lesions (herpes labialis (HSV-1)): shortened
- activity in cell cultures against lipid enveloped viruses [1]: broad activity
- solubility in water: insoluble
- therapeutic effect in enlargement of the prostate gland [2]: therapeutically effective
